Results on one molecule are retold here after ChEMBL document CHEMBL1127939, “Non-peptide fibrinogen receptor antagonists. 3. design and discovery of a centrally constrained inhibitor” (Bioorg Med Chem Lett, 1994).

Experiment [1] deals with Canis familiaris. The experiment is described as follows: Ex vivo percent inhibition of platelet aggregation at oral dose of 2 mg/kg after 140 min. The experiment is classed as functional. To be noted: Canis lupus familiaris.
For experiment [2], the system named is Canis familiaris. The experiment is described as follows: Ex vivo percent inhibition of platelet aggregation at oral dose of 4 mg/kg after 480 min. The experiment is classed as functional. To be noted: Canis lupus familiaris, 8 h.
Experiment [3] has as its target Integrin alpha-5/beta-1 (Homo sapiens) (UniProt P05556+P08648). Put plainly: Inhibition of human umbilical vein endothelial cell (HUVEC) adhesion to fibronectin at 300 uM (No inhibition). The experiment is classed as cell-based.
The target of experiment [4] is Integrin alpha-IIb/beta-3 (Homo sapiens) (UniProt P05106+P08514). The experiment is described as follows: Inhibition of human umbilical vein endothelial cell (HUVEC) adhesion to fibrinogen at 300 uM (No inhibition). The experiment is classed as cell-based.
Another experiment concerns HUVEC. Put plainly: Inhibition of human umbilical vein endothelial cell (HUVEC) adhesion to vitronectin at 300 uM (No inhibition). The experiment is classed as cell-based.

Activity calls are given as the source filed them. The calls are words filed in the database; no cut-off is given here.

As to `O=C(O)CCNC(=O)c1ccc2c(c1)C(=O)N(CCC1CCNCC1)C2`, in the experiment with Canis familiaris [1], the inhibition in vivo at 2 mg/kg stood at 65%. Moreover, in the experiment with Canis familiaris [2], testing at 4 mg/kg gave an inhibition in vivo of 90%. In addition, the inhibition entry (in experiment [3]; in experiment [4]; with HUVEC) was “inactive” throughout.
